Legend:
Plasmodium falciparum [1] = experiment: Antimalarial activity against […] incubated for 72 hrs by DNA staining based MARK1 growth inhibition assay; type: functional, organism-based
Plasmodium falciparum [2] = experiment: Antimalarial activity against chloroquine-sensitive Plasmodium falciparum 3D7 incubated for 72 hrs by DNA staining based MAR3D7 growth inhibition assay; type: functional, organism-based; conditions: 3D7, 72 h
HepG2 = experiment: Cytotoxicity against human HepG2 cells after 72 hrs by […] CellTiterGlo reagent assay; type: cell-based; conditions: HepG2, 72 h
Raji = experiment: Cytotoxicity against human Raji cells after 72 hrs by […] CellTiterGlo reagent assay; type: cell-based
BJ = experiment: Cytotoxicity against human BJ cells after 72 hrs by […] CellTiterGlo reagent assay; type: cell-based
HEK293 = experiment: Cytotoxicity against human HEK293 cells after 72 hrs by […] CellTiterGlo reagent assay; type: cell-based; conditions: HEK293, 72 h

Row | Structure (SMILES) | EC50 (Plasmodium falciparum [1]) [µM] | EC50 (Plasmodium falciparum [2]) [µM] | EC50 (HepG2) [µM] | EC50 (Raji) [µM] | EC50 (BJ) [µM] | EC50 (HEK293) [µM]
1 | CCOC(=O)CCCCCOc1cccc(CN(C(=O)c2ccc(-c3cccnc3)cc2)C(C)C)c1 | > 15 | > 15 | > 26 | > 26 | > 26 | > 26
2 | CCOC(=O)CCCCCOc1cccc(CN(C(=O)c2ccc(-c3cnc(OC)nc3OC)cc2)C(C)C)c1 | > 15 | > 15 | > 26 | > 26 | > 26 | > 26
3 | CCOC(=O)CCCCCOc1cccc(CN(C(=O)c2ccc(-c3ccoc3)cc2)C(C)C)c1 | > 15 | > 15 | > 26 | > 26 | > 26 | > 26
4 | CCOC(=O)CCCCCOc1cccc(CN(C(=O)c2ccc(-c3ccco3)cc2)C(C)C)c1 | > 15 | > 15 | > 26 | > 26 | > 26 | > 26
5 | CCOC(=O)CCCCCOc1cccc(CN(C(=O)c2ccc(-c3ccsc3)cc2)C(C)C)c1 | > 15 | > 15 | > 26 | > 26 | > 26 | > 26
6 | CCOC(=O)CCCCCOc1cccc(CN(C(=O)c2ccc(-c3ccc(C(C)=O)s3)cc2)C(C)C)c1 | > 15 | > 15 | > 26 | > 26 | > 26 | > 26
7 | CCOC(=O)CCCCCOc1cccc(CN(C(=O)c2ccc(-c3cccc(-c4nnc(C)o4)c3)cc2)C(C)C)c1 | > 15 | > 15 | > 26 | > 26 | > 26 | > 26
8 | CCOC(=O)CCCCCOc1cccc(CN(C(=O)c2ccc(-c3ccc4[nH]ccc4c3)cc2)C(C)C)c1 | > 15 | > 15 | > 26 | > 26 | > 26 | > 26
9 | CCOC(=O)CCCCCOc1cccc(CN(C(=O)c2ccc(-c3ccc4cc[nH]c4c3)cc2)C(C)C)c1 | > 15 | > 15 | > 26 | > 26 | > 26 | > 26
10 | CCOC(=O)CCCCCOc1cccc(CN(C(=O)c2ccc(-c3cn(S(=O)(=O)c4ccccc4)c4ccccc34)cc2)C(C)C)c1 | > 15 | > 15 | > 26 | > 26 | > 26 | > 26
11 | CCOC(=O)CCCCCOc1cccc(CN(C(=O)c2ccc(-c3cc4ccccc4n3S(=O)(=O)c3ccccc3)cc2)C(C)C)c1 | > 15 | > 15 | > 26 | > 26 | > 26 | > 26
12 | CCOC(=O)CCCCCOc1cccc(CN(C(=O)c2ccc(-c3cccc(CC#N)c3)cc2)C(C)C)c1 | > 15 | > 15 | > 26 | > 26 | > 26 | > 26

Source: ChEMBL document CHEMBL2046380, “Synthesis and structure-activity relationship of disubstituted benzamides as a novel class of antimalarial agents” (Bioorg Med Chem Lett, 2012)
